Source: the supplement of paper PMC10307832

Assays:
Assay in all cases: relative viability (nuclei count vs DMSO), 5 days (fraction); higher = more cells survive
[1] = compound: CC(C)C[C@H](NC(=O)[C@H](Cc1ccccc1)NC(=O)c1cnccn1)B(O)O [Bortezomib] + Nc1ncn([C@H]2C[C@H](O)[C@@H](CO)O2)c(=O)n1 [Decitabine] (partner 2 µM)
Outline: (§1)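 Values are medians from duplicate plates. Each reflects relative viability, defined as the nuclei count of treated wells over that of vehicle wells. Lung cancer cell lines in 1536-well plates were pin-tool dosed one day after seeding with one drug alone or with a fixed anchor-drug dose plus five library-drug doses (not always all listed) in √10 steps, then fixed, stained and imaged at 4× after 5 days.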

[2] = compound: CC(C)C[C@H](NC(=O)[C@H](Cc1ccccc1)NC(=O)c1cnccn1)B(O)O [Bortezomib] + CC(=O)c1c(C)c2cnc(Nc3ccc(N4CCNCC4)cn3)nc2n(C2CCCC2)c1=O [Palbociclib] (partner 0.5 µM)
Outline: as §1

[3] = compound: CC(C)C[C@H](NC(=O)[C@H](Cc1ccccc1)NC(=O)c1cnccn1)B(O)O [Bortezomib] + NC(=O)Nc1cc(-c2cccc(F)c2)sc1C(=O)N[C@H]1CCCNC1 [AZD7762] (partner 0.2 µM)
Outline: as §1

[4] = compound: CC(C)C[C@H](NC(=O)[C@H](Cc1ccccc1)NC(=O)c1cnccn1)B(O)O [Bortezomib] + CC(=O)Nc1cccc(-n2c(=O)n(C3CC3)c(=O)c3c(Nc4ccc(I)cc4F)n(C)c(=O)c(C)c32)c1 [Trametinib] (partner 0.02 µM)
Outline: as §1

Cell Line	relative viability ([1]; first compound 0.0002 µM)	relative viability ([1]; first compound 0.000632 µM)	relative viability ([1]; first compound 0.002 µM)	relative viability ([1]; first compound 0.006325 µM)	relative viability ([1]; first compound 0.02 µM)	relative viability ([2]; first compound 0.0002 µM)	relative viability ([2]; first compound 0.000632 µM)	relative viability ([2]; first compound 0.002 µM)	relative viability ([2]; first compound 0.006325 µM)	relative viability ([2]; first compound 0.02 µM)	relative viability ([3]; first compound 0.0002 µM)	relative viability ([3]; first compound 0.000632 µM)	relative viability ([3]; first compound 0.002 µM)	relative viability ([3]; first compound 0.006325 µM)	relative viability ([3]; first compound 0.02 µM)	relative viability ([4]; first compound 0.0002 µM)	relative viability ([4]; first compound 0.000632 µM)	relative viability ([4]; first compound 0.002 µM)	relative viability ([4]; first compound 0.006325 µM)	relative viability ([4]; first compound 0.02 µM)
LK-2	0.274	0.384	0.281	0.227	0.15	0.649	0.685	0.415	0.125	0.133	0.335	0.387	0.533	0.449	0.0966	0.68	0.597	0.332	0.156	0.196
NCI-H23	0.288		0.312	0.162	0.163	0.456		0.398	0.158	0.13	0.17		0.308	0.25	0.0879	0.343		0.286	0.193	0.114
NCI-H1355	0.343	0.362	0.367	0.177	0.139	0.394	0.4	0.398	0.24	0.138	0.794	0.721	0.922	0.293	0.133	0.432	0.468	0.457	0.216	0.118
A-427	0.531	0.536	0.579	0.247	0.18	0.508	0.469	0.53	0.272	0.169	0.719	0.872	0.763	0.197	0.146	0.657	0.842	0.696	0.216	0.161
LU99A	0.841	0.88	0.885	0.825	0.202	0.464	0.364	0.405	0.261	0.164	0.373	0.344	0.381	0.437	0.163	0.546	0.522	0.567	0.517	0.148
